How the values were obtained:
DU-145 = assay: Cytotoxicity against human PRXF DU145 cells after 4 days by propidium iodide staining; details: DU-145, 96 h
[1] = Cytotoxicity against human GXF251L cells after 4 days by propidium iodide staining; details: GXF 251L, 96 h
[2] = biological target: T1, Ephrin type-B receptor 1 (Homo sapiens) (UniProt P54762); assay: Inhibition of human Eph-B1 using [gamma-33P]ATP assessed as residual activity at 3 uM after 30 mins by radiometric assay
T1 sequence (whole entry): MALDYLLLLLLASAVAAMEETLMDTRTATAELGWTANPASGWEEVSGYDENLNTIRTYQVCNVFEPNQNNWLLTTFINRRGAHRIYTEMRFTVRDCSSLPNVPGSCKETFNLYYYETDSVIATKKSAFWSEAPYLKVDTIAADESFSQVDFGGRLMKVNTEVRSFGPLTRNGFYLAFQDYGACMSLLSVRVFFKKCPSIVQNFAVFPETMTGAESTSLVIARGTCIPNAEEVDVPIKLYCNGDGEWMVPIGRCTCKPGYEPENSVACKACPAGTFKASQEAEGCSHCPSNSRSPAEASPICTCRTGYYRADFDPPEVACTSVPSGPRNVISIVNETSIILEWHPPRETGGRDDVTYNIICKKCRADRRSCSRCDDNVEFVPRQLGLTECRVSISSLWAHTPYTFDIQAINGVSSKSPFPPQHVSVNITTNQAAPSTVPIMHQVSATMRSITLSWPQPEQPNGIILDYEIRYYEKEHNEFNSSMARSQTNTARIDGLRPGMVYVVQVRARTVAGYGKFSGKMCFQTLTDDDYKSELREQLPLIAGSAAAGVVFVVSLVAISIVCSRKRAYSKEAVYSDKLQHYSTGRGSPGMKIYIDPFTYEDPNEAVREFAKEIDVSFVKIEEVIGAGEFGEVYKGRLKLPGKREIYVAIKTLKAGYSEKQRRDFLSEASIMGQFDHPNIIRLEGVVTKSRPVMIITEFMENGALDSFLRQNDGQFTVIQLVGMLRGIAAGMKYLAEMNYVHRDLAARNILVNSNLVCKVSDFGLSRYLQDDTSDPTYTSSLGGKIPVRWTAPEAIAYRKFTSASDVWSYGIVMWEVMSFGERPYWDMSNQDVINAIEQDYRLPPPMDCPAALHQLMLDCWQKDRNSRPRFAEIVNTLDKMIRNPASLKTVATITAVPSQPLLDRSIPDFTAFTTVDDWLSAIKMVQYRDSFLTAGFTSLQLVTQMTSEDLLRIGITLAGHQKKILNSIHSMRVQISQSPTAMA

[3] = biological target: T2, Ephrin type-B receptor 2 (Homo sapiens) (UniProt P29323); assay: Inhibition of human Eph-B2 using [gamma-33P]ATP assessed as residual activity at 3 uM after 30 mins by radiometric assay
T2 sequence (whole entry): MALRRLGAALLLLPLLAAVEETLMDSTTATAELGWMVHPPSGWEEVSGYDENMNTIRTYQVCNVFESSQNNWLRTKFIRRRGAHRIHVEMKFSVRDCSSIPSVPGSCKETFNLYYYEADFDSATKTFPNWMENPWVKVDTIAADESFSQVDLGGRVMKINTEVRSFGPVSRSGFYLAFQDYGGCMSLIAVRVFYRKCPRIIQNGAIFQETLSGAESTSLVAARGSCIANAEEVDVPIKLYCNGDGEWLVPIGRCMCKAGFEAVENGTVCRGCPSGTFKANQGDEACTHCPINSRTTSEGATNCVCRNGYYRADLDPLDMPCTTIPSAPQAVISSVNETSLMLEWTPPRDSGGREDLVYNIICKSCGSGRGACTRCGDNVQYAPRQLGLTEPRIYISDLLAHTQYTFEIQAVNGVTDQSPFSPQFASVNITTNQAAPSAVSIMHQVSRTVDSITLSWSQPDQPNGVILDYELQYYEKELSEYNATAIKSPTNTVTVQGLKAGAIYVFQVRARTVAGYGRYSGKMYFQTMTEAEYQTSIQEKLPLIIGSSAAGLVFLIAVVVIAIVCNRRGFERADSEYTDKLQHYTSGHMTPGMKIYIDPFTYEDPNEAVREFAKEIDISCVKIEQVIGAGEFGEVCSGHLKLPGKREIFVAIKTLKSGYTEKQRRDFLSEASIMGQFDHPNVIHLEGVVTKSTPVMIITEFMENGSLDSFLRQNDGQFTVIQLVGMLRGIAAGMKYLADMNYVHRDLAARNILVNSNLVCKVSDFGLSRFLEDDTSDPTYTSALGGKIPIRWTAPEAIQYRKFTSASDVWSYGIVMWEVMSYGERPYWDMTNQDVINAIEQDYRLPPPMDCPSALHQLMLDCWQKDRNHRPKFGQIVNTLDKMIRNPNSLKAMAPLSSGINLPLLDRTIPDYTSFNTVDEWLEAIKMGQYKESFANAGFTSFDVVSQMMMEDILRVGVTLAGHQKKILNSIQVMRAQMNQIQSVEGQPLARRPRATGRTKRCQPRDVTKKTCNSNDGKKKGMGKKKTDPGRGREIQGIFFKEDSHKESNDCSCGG

[4] = biological target: Ephrin type-A receptor 4 (Homo sapiens) (UniProt P54764); assay: Inhibition of human Eph-A4 using [gamma-33P]ATP assessed as residual activity at 3 uM after 30 mins by radiometric assay
Sequence of Ephrin type-A receptor 4 (Homo sapiens) (P54764 whole entry): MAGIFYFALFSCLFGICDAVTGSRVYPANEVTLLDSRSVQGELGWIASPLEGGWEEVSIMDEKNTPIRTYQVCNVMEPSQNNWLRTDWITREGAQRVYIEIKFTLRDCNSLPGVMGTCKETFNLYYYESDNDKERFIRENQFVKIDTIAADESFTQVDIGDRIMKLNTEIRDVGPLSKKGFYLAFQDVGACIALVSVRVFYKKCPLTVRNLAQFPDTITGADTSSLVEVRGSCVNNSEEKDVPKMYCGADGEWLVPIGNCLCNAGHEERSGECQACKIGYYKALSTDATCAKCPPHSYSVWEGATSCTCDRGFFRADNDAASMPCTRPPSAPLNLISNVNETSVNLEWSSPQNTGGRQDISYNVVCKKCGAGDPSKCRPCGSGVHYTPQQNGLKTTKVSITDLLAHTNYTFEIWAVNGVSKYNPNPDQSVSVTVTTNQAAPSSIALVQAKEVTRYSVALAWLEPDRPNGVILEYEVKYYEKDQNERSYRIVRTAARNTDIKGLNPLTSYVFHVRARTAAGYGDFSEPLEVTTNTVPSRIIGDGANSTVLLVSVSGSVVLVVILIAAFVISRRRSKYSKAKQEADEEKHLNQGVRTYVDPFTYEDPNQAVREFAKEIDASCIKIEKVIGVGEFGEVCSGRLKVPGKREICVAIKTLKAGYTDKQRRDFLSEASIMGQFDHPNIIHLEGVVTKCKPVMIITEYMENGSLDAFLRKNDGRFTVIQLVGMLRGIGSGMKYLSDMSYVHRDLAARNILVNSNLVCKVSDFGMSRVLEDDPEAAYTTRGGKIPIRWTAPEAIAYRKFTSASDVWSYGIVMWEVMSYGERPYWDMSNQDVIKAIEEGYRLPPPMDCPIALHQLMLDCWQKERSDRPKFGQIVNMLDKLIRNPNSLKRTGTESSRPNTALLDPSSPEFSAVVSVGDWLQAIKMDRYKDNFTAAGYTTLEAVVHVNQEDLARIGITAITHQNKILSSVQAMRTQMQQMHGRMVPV

[5] = biological target: Tyrosine-protein kinase CSK (Homo sapiens) (UniProt P41240); assay: Inhibition of human CSK using [gamma-33P]ATP assessed as residual activity at 3 uM after 30 mins by radiometric assay
Sequence of Tyrosine-protein kinase CSK (Homo sapiens) (P41240 2-450 limits assumed): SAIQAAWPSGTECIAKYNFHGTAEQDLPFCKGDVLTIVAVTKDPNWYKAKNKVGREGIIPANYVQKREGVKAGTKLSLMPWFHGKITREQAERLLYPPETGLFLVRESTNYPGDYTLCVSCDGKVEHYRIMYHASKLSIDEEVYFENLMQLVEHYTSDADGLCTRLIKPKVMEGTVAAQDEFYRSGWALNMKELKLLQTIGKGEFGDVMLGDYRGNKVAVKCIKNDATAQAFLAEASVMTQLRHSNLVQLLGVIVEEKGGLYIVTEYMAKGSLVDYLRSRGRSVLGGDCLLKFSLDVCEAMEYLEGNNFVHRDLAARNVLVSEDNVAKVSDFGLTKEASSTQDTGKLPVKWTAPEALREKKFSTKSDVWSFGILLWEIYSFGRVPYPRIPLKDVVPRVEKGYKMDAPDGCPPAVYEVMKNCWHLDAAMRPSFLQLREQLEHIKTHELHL

[6] = biological target: Tyrosine-protein kinase Yes (Homo sapiens, UniProt P07947); assay: Inhibition of Yes1 (unknown origin) using [gamma-33P]ATP after 30 mins by radiometric assay
Sequence of Tyrosine-protein kinase Yes (P07947 whole entry): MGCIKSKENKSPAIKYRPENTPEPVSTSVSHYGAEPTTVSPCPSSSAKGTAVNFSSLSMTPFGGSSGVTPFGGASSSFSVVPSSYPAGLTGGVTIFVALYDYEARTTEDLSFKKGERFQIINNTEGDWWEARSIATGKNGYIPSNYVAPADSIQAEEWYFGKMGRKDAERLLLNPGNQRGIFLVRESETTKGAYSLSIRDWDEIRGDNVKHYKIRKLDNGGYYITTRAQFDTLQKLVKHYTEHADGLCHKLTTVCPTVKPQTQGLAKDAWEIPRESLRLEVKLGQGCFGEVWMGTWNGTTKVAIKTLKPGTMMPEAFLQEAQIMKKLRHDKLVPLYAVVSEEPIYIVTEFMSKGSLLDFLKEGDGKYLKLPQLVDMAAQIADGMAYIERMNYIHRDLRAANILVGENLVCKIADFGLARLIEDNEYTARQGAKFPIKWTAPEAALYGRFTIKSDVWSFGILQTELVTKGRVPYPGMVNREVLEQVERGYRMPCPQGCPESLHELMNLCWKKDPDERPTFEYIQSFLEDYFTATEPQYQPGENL

[7] = Apparent permeability from basolateral to apical side in human Caco2 cells after 2 hrs by LC-MS/MS analysis; format: ADME, cell-based; details: Caco-2
[8] = Permeability from basolateral to apical side in human Caco2 cells assessed as compound recovery after 2 hrs by LC-MS/MS analysis; format: ADME, cell-based; details: Caco-2, read-out: permeability
[9] = Permeability from apical to basolateral side in human Caco2 cells assessed as compound recovery after 2 hrs by LC-MS/MS analysis; format: ADME, cell-based; details: Caco-2, read-out: permeability
[10] = biological target: Tyrosine-protein kinase ABL1 (Homo sapiens, UniProt P00519)
Sequence of Tyrosine-protein kinase ABL1 (P00519 whole entry): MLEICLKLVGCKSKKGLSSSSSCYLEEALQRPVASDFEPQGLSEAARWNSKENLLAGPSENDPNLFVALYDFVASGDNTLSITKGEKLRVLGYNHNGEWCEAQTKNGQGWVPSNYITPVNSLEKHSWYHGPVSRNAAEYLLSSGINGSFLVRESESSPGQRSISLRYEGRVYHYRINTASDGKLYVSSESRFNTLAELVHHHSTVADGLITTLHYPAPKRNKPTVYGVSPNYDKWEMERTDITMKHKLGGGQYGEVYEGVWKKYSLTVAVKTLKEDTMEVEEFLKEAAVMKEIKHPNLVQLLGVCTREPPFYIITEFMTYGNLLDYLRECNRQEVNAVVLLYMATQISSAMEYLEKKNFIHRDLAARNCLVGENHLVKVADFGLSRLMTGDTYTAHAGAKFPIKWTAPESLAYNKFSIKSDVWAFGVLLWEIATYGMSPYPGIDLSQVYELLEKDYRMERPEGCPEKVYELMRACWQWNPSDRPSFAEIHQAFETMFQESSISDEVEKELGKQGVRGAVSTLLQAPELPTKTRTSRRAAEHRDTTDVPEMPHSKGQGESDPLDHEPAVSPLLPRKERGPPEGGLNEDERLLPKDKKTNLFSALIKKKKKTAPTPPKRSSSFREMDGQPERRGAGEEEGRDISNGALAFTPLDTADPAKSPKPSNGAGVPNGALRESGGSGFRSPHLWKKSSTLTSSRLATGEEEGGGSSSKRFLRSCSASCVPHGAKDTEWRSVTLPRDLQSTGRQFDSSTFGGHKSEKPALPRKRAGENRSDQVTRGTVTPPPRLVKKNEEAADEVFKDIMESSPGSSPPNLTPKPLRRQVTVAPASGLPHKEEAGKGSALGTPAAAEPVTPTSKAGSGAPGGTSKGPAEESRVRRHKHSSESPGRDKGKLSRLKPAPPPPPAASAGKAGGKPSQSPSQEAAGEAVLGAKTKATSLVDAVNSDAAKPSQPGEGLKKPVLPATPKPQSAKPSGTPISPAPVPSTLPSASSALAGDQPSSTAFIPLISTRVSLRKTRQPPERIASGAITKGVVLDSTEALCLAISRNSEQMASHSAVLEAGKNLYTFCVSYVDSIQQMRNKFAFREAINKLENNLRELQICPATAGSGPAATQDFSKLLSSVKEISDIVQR
Description: Inhibition of Abl (unknown origin) using [gamma-33P]ATP after 30 mins by radiometric assay

[11] = biological target: Proto-oncogene tyrosine-protein kinase Src (Homo sapiens, UniProt P12931)
Sequence of Proto-oncogene tyrosine-protein kinase Src (P12931 2-536 limits assumed): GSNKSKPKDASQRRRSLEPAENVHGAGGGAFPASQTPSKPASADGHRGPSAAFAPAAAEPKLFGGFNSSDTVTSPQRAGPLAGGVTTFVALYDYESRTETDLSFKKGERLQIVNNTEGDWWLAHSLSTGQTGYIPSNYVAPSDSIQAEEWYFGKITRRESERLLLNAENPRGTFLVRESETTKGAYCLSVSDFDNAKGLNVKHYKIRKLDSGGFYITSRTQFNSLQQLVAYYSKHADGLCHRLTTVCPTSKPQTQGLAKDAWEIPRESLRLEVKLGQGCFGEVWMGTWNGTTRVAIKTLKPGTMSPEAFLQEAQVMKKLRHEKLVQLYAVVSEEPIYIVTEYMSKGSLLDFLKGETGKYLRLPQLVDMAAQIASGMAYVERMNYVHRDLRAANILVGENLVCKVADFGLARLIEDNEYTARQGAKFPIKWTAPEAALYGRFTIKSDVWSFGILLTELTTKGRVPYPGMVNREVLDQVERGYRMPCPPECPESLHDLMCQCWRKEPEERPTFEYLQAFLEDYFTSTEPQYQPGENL
Description: Inhibition of Src (unknown origin) using [gamma-33P]ATP after 30 mins by radiometric assay

Activity [2]: 10%
Activity [3]: 8%
Activity [4]: 5%
Activity [5]: 57%
IC50 [6]: 0.284 µM
Papp B→A at 2 h [7]: 28.1 ×10⁻⁶ cm/s
recovery at 2 h [8]: 89%
recovery at 2 h [9]: 85%
IC50 [10]: 0.578 µM
IC50 [11]: 0.071 µM
SMILES: CCCCn1c(-c2ccccc2C)cn2c3c(=O)[nH]c(=O)n(C)c3nc12
IC50 (DU-145): 11.2 µM
IC50 [1]: 14.6 µM
